Measurements from ChEMBL document CHEMBL5316335, “Tanzawaic Acid Derivatives from the Marine-Derived Penicillium steckii as Inhibitors of RANKL-Induced Osteoclastogenesis” (J Nat Prod, 2023).
Activity calls are given as the source filed them. The calls are words filed in the database; no cut-off is given here.

Experiments:
[1] = Inhibition of LPS-induced NF-kappaB activation in mouse RAW264.7 cells transfected with NF-kappaB luciferase reporter gene pretreated with compounds for 30 mins followed by LPS stimulation for 8 hrs by luciferase reporter gene assay; type: cell-based
PC-3 = test: Anticancer activity against human PC-3 cells assessed as reduction in cell viability by MTT assay; type: functional, cell-based
CWR22R = test: Anticancer activity against human 22Rv1 cells assessed as reduction in cell viability by MTT assay; type: functional, cell-based
Klebsiella pneumoniae = test: Antibacterial activity against Klebsiella pneumoniae assessed as inhibition of bacterial growth by broth microdilution method; type: functional, organism-based
LNCaP = test: Anticancer activity against human LNCaP cells assessed as reduction in cell viability by MTT assay; type: functional, cell-based
Sclerotinia sclerotiorum = test: Antifungal activity against Sclerotinia sclerotiorum Hanzawa assessed as inhibition of fungal growth by broth microdilution method; type: functional, organism-based
Pyricularia grisea = test: Antifungal activity against Magnaporthe grisea assessed as inhibition of fungal growth by broth microdilution method; type: functional, organism-based
DU-145 = test: Anticancer activity against human DU-145 cells assessed as reduction in cell viability by MTT assay; type: functional, cell-based
Candida albicans = test: Antifungal activity against Candida albicans Berkhout assessed as inhibition of fungal growth by broth microdilution method; type: functional, organism-based
Staphylococcus aureus = test: Antibacterial activity against Staphylococcus aureus assessed as inhibition of bacterial growth by broth microdilution method; type: functional, organism-based
[2] = tested on: Colletotrichum gloeosporioides; test: Antifungal activity against Colletotrichum gloeosporioides assessed as inhibition of fungal growth by broth microdilution method; type: functional, organism-based
BMMC = test: Anti-osteoclastogenic activity in mouse BMMC assessed as inhibition of RANKL-induced osteoclast differentiation at 5 to 15 uM and measured after 3 days by TRAP staining inverted microscopic analysis; type: functional, cell-based; conditions: dose 5-15 µM, time 3.0 day

Compound | IC50 [1] [µM] | Activity (PC-3) | Activity (CWR22R) | Activity (Klebsiella pneumoniae) | Activity (LNCaP) | Activity (Sclerotinia sclerotiorum) | Activity (Pyricularia grisea) | Activity (DU-145) | Activity (Candida albicans) | Activity (Staphylococcus aureus) | Activity [2] | Activity (BMMC)
Cc1ccc(S(=O)(=O)/C=C/C#N)cc1 | 5 |  |  |  |  |  |  |  |  |  |  | 
Cc1ccc2c(c1/C=C/C=C/C(=O)O)[C@H](C)C[C@@](C)(O)C2 | 18.6 | inactive | inactive | inactive | inactive | inactive | inactive | inactive | inactive | inactive | inactive | 
C[C@@H]1C[C@H](C)[C@H](O)c2ccc(CO)c(/C=C/C=C/C(=O)O)c21 | 10.4 | inactive | inactive | inactive | inactive | inactive | inactive | inactive | inactive | inactive | inactive | Dose-Dependent Effect
C[C@@H]1C[C@@H]2[C@H](O)[C@H](O)[C@H](C)[C@](O)(/C=C/C=C/C(=O)O)[C@H]2[C@H](C)C1 | 15.2 | inactive | inactive | inactive | inactive | inactive | inactive | inactive | inactive | inactive | inactive | 
